This is an account of results in patent publication US9776997B2, “3-aryl-substituted imidazo[1,2-A]pyridines and their use” (Bayer Pharma Aktiengesellschaft, priority 2013, dated 2017).

The assay concerns the target T1, recombinant guanylate cyclase reporter cell line (Rattus norvegicus, UniProt P19686+P20595).
T1 construct: expressed in transfected cells; host or cells: recombinant reporter cell line
T1 sequence (P19686 1-690): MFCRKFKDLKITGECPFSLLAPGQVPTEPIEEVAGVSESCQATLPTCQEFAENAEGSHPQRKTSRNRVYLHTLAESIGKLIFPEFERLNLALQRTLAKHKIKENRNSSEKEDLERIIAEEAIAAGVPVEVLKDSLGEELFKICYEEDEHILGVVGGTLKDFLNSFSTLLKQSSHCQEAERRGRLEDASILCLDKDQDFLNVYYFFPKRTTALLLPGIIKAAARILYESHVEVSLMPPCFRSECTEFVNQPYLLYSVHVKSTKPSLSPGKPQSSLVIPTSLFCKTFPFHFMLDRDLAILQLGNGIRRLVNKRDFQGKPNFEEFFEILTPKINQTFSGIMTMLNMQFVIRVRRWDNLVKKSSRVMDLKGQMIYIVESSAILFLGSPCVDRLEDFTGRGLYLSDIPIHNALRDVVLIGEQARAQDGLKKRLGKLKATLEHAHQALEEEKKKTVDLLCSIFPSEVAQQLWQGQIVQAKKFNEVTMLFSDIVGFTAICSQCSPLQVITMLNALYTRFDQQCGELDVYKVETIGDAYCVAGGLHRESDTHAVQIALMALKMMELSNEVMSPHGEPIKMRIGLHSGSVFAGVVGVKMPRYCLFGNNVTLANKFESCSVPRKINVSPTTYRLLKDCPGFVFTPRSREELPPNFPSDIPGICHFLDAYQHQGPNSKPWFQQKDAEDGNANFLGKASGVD
T1 sequence (P20595 1-619): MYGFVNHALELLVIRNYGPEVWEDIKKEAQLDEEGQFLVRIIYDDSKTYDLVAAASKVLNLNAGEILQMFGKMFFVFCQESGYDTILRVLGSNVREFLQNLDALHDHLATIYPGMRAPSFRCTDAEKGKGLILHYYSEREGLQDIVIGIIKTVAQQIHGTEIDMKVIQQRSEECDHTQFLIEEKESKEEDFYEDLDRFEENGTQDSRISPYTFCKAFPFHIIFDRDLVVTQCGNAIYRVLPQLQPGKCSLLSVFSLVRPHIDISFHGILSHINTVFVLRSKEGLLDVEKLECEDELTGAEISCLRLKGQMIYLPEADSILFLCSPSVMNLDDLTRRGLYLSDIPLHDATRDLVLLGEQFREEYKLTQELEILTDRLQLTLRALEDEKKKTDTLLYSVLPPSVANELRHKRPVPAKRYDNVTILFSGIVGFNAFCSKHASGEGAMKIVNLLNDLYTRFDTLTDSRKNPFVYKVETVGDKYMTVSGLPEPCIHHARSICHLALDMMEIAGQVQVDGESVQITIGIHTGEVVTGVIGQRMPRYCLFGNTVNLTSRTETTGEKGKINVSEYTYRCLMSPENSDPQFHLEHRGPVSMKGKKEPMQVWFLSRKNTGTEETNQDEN
Put plainly: Effect on a recombinant guanylate cyclase reporter cell line. As to conditions: MEC = minimum effective concentration; in some cases mean values for individual determinations. It is filed as cell-based. The protocol:
B-2. Effect on a Recombinant Guanylate Cyclase Reporter Cell Line
The cellular effect of the inventive compounds is determined using a recombinant guanylate cyclase reporter cell line, as described in F. Wunder et al., Anal. Biochem. 339, 104-112 (2005).
Representative MEC values (MEC=minimum effective concentration) for the inventive compounds are shown in the table below (in some cases as mean values for individual determinations): […]
On to `Cc1cc(OCc2c(F)cccc2F)c2nc(C)c(-c3cnn(C(C)CC(=O)O)c3)n2c1` (racemic) [Example 110, rac-3-(4-{8-[(2,6-difluorobenzyl)oxy]-2,6-dimethylimidazo[1,2-a]pyridin-3-yl}-1H-pyrazol-1-yl)butanoic acid], for which the MEC was determined as 1.0 µM.
With `CCN(CC)CCNC(=O)CC(C)n1cc(-c2c(C)nc3c(OCc4c(F)cccc4F)cc(C)cn23)cn1` (racemic) [Example 112, rac-N-[2-(Diethylamino)ethyl]-3-(4-{8-[(2,6-difluorobenzyl)oxy]-2,6-dimethylimidazo[1,2-a]pyridin-3-yl}-1H-pyrazol-1-yl)butanamide] the figure was 1.0 µM; with `Cc1nc2c(OCc3c(F)cccc3F)cccn2c1-c1cnn(Cc2ccccc2)c1` [Example 1, 3-(1-Benzyl-1H-pyrazol-4-yl)-8-[(2,6-difluorobenzyl)oxy]-2-methylimidazo[1,2-a]pyridine], 0.065 µM; with `CC(=O)c1cccc(-c2c(C)nc3c(OCc4c(F)cccc4F)cccn23)c1` [Example 2, 1-(3-{8-[(2,6-difluorobenzyl)oxy]-2-methylimidazo[1,2-a]pyridin-3-yl}phenyl)ethanone], 0.1 µM.
With `Cc1cc(-c2c(C)nc3c(OCc4c(F)cccc4F)cccn23)ccn1` [Example 3, 8-[(2,6-difluorobenzyl)oxy]-2-methyl-3-(2-methylpyridin-4-yl)imidazo[1,2-a]pyridine] the figure was 0.1 µM; with `CC(=O)Nc1cccc(-c2c(C)nc3c(OCc4c(F)cccc4F)cccn23)c1` [Example 4, N-(3-{8-[(2,6-difluorobenzyl)oxy]-2-methylimidazo[1,2-a]pyridin-3-yl}phenyl)acetamide], 0.2 µM; with `CCN(C)Cc1cccc(-c2c(C)nc3c(OCc4c(F)cccc4F)cccn23)c1` [Example 5, N-(3-{8-[(2,6-difluorobenzyl)oxy]-2-methylimidazo[1,2-a]pyridin-3-yl}benzyl)-N-methylethanamine], 0.2 µM.
Regarding `CCS(=O)(=O)c1cccc(-c2c(C)nc3c(OCc4c(F)cccc4F)cccn23)c1` [Example 6, 8-[(2,6-difluorobenzyl)oxy]-3-[3-(ethylsulphonyl)phenyl]-2-methylimidazo[1,2-a]pyridine], the MEC stood at 0.1 µM.
Take `Cc1nc2c(OCc3c(F)cccc3F)cccn2c1-c1cccc(C(N)=O)c1` [Example 7, 3-{8-[(2,6-difluorobenzyl)oxy]-2-methylimidazo[1,2-a]pyridin-3-yl}benzamide]: the MEC is 0.1 µM.
Next, `Cc1nc2c(OCc3c(F)cccc3F)cccn2c1-c1cccc(O)c1` [Example 8, 3-{8-[(2,6-difluorobenzyl)oxy]-2-methylimidazo[1,2-a]pyridin-3-yl}phenol]: 0.1 µM; `Cc1nc2c(OCc3c(F)cccc3F)cccn2c1-c1ccc(C(=O)NC2CC2)cc1` [Example 9, N-cyclopropyl-4-{8-[(2,6-difluorobenzyl)oxy]-2-methylimidazo[1,2-a]pyridin-3-yl}benzamide]: 0.3 µM; `CCOc1ccc(-c2c(C)nc3c(OCc4c(F)cccc4F)cccn23)cc1` [Example 10, 8-[(2,6-difluorobenzyl)oxy]-3-(4-ethoxyphenyl)-2-methylimidazo[1,2-a]pyridine]: 1.0 µM.
Next, `Cc1nc2c(OCc3c(F)cccc3F)cccn2c1-c1ccnn1C` [Example 11, 8-[(2,6-difluorobenzyl)oxy]-2-methyl-3-(1-methyl-1H-pyrazol-5-yl)imidazo[1,2-a]pyridine]: 3.0 µM.
With `Cc1cc(-c2c(C)nc3c(OCc4c(F)cccc4F)cccn23)cnc1Cl` [Example 12, 3-(6-chloro-5-methylpyridin-3-yl)-8-[(2,6-difluorobenzyl)oxy]-2-methylimidazo[1,2-a]pyridine] the figure was 0.1 µM; with `Cc1nc2c(OCc3c(F)cccc3F)cccn2c1-c1cccc(Br)c1` [Example 13, 3-(3-bromophenyl)-8-[(2,6-difluorobenzyl)oxy]-2-methylimidazo[1,2-a]pyridine], 0.3 µM.
As for `Cc1nc2c(OCc3c(F)cccc3F)cccn2c1-c1ccsc1` [Example 14, 8-[(2,6-difluorobenzyl)oxy]-2-methyl-3-(3-thienyl)imidazo[1,2-a]pyridine], the MEC came to 0.3 µM.
Consider `Cc1nc2c(OCc3c(F)cccc3F)cccn2c1-c1cccc(CN2CCCC2)c1` [Example 15, 8-[(2,6-difluorobenzyl)oxy]-2-methyl-3-[3-(pyrrolidin-1-ylmethyl)phenyl]imidazo[1,2-a]pyridine], for which the MEC amounted to 0.065 µM.
With `Cc1nc2c(OCc3c(F)cccc3F)cccn2c1-c1ccc(F)cc1` [Example 16, 8-[(2,6-difluorobenzyl)oxy]-3-(4-fluorophenyl)-2-methylimidazo[1,2-a]pyridine] the figure was 1.0 µM.
With `Cc1nc2c(OCc3c(F)cccc3F)cccn2c1-c1ccc(C#N)cc1` [Example 17, 4-{8-[(2,6-difluorobenzyl)oxy]-2-methylimidazo[1,2-a]pyridin-3-yl}benzonitrile] the figure was 1.0 µM; with `CCOC(=O)c1cccc(-c2c(C)nc3c(OCc4c(F)cccc4F)cccn23)c1` [Example 18, Ethyl 3-{8-[(2,6-difluorobenzyl)oxy]-2-methylimidazo[1,2-a]pyridin-3-yl}benzoate], 1.0 µM.
Next, `Cc1nc2c(OCc3c(F)cccc3F)cccn2c1-c1cnc2ccccc2c1` [Example 19, 3-{8-[(2,6-difluorobenzyl)oxy]-2-methylimidazo[1,2-a]pyridin-3-yl}quinoline]: 1.0 µM; `Cc1nc2c(OCc3c(F)cccc3F)cccn2c1-c1cccc(CN2CCOCC2)c1` [Example 21, 8-[(2,6-difluorobenzyl)oxy]-2-methyl-3-[3-(morpholin-4-ylmethyl)phenyl]imidazo[1,2-a]pyridine]: 1.0 µM; `CCCOc1ccc(-c2c(C)nc3c(OCc4c(F)cccc4F)cccn23)cn1` [Example 22, 8-[(2,6-difluorobenzyl)oxy]-2-methyl-3-(6-propoxypyridin-3-yl)imidazo[1,2-a]pyridine]: 1.0 µM.
For `Cc1nc2c(OCc3c(F)cccc3F)cccn2c1-c1ccc2c(c1)COC2=O` [Example 23, 5-{8-[(2,6-difluorobenzyl)oxy]-2-methylimidazo[1,2-a]pyridin-3-yl}-2-benzofuran-1(3H)-one], the MEC was 1.0 µM.
With `Cc1nc2c(OCc3c(F)cccc3F)cccn2c1-c1cccc(OC(F)(F)F)c1` [Example 24, 8-[(2,6-difluorobenzyl)oxy]-2-methyl-3-[3-(trifluormethoxy)phenyl]imidazo[1,2-a]pyridine] the figure was 1.0 µM; with `COc1ccc(-c2c(C)nc3c(OCc4c(F)cccc4F)cccn23)cc1` [Example 25, 8-[(2,6-difluorobenzyl)oxy]-3-(4-methoxyphenyl)-2-methylimidazo[1,2-a]pyridine], 1.0 µM; with `Cc1nc2c(OCc3c(F)cccc3F)cccn2c1-c1ccc(CN(C)C)cc1` [Example 26, 1-(4-{8-[(2,6-difluorobenzyl)oxy]-2-methylimidazo[1,2-a]pyridin-3-yl}phenyl)-N,N-dimethylmethanamine], 1.0 µM.
Take `COCCN(C)Cc1cc(-c2c(C)nc3c(OCc4c(F)cccc4F)cccn23)ccc1OC` [Example 27, N-(5-{8-[(2,6-difluorobenzyl)oxy]-2-methylimidazo[1,2-a]pyridin-3-yl}-2-methoxybenzyl)-2-methoxy-N-methylethanamine]: the MEC came out at 1.0 µM.
Next, `CCN(C)Cc1ccc(OC)c(-c2c(C)nc3c(OCc4c(F)cccc4F)cccn23)c1` [Example 28, N-(3-{8-[(2,6-difluorobenzyl)oxy]-2-methylimidazo[1,2-a]pyridin-3-yl}-4-methoxybenzyl)-N-methylethanamine]: 1.0 µM.
